“Also recorded” adds a separate entry of the source. Like-named read-outs stand apart in the source and are kept apart here.
Key:
[1] = tested on: total potassium currents, comprised of IAs, delayed-rectifier, and non-inactivating potassium currents; test: voltage-clamp measurement of total evoked potassium current; format: cell-based, Sprague-Dawley rats
MSNs from the NAcb shell [2] = format: cell-based, Sprague-Dawley rats; details: for effect on DA-mediated changes in spike firing / effect on spike firing, intracellular perfusion alone: 1 μM, intracellular perfusion; for effect on increase in spike firing elicited by D1/D2 co-activation: dialysis of neurons; for effect on activation of spike firing by forskolin: peptide in intracellular solution
MSNs from the NAcb shell [3] = tested on: MSNs from the NAcb shell
Method: Patch-clamping was performed using visualized infrared-DIC with 2.5 to 3.5 MΩ electrodes. Current pulses were applied using Clampex 8.0 and an Axo-1D patch amplifier in current-clamp mode (Axon Instruments, Foster City, Calif.). Upon breaking into neurons, the resting membrane potentials were between −95 and −80 mV. […] Series resistance correction was 15-20 MΩ. To record EPSPs, a bipolar stimulating electrode was placed ˜100 μM lateral to the recording electrode. Afferents were stimulated with 10 pulses at 20 Hz (20 μs) every 30 seconds using a Master 8 (AMPI, Jerusalem, Israel), and EPSPs were recorded using Clampex in current-clamp mode.
We also performed a within-cell comparison of the spike firing change and the change in input resistance or Vm-rest.

Compound: Nc1ccncc1 [4-AP, 4-aminopyridine]
- effect on potassium current evoked by a 300 ms pulse to 0 mV ([1]; 10 μM): small but significant inhibition
- effect on DA-mediated enhancement of spike firing (occlusion) (MSNs from the NAcb shell [2]; 60 μM pre-exposure): significantly occluded the effects of DA
- effect on spike firing (MSNs from the NAcb shell [2]; 5-60 μM): increased spike firing in a dose-dependent manner; also recorded: significantly enhanced spike firing
- change in spike firing with DA after pre-exposure to IAs inhibitor (MSNs from the NAcb shell [2]; inhibitor 10 μM): 11.4+/−5.1%

Compound: NCCc1ccc(O)c(O)c1 [DA, Dopamine]
- effect on potassium current evoked by a 300 ms pulse to 0 mV ([1]; 75 μM): small but significant inhibition
- effect on input resistance (R-input) (MSNs from the NAcb shell [3]): no significant changes
- effect on resting membrane potential (Vm-rest) (MSNs from the NAcb shell [3]): no significant changes
- effect on spike firing (MSNs from the NAcb shell [2]): significantly and reversibly elevated spike firing
- enhancement in spike firing by DA with calcium channels blocked (MSNs from the NAcb shell [2]; pre-incubation with ω-conotoxin GVIA 500 nM and ω-agatoxin IVA 250 nM, continuous nifedipine 30 μM): 24.0+/−5.0%

Compound: CCCN1CCc2cccc3c2[C@H]1Cc1ccc(O)c(O)c1-3 [NPA, propylnorapomorphine]
- effect on spike firing, agonist alone (MSNs from the NAcb shell [2]; 3 μM, alone): not altered

Compound: Nc1ncnc2c1ncn2[C@@H]1O[C@@H]2CO[P@@](O)(=S)O[C@H]2[C@H]1O [Rp-cAMPS]
- effect on spike firing when added during the DA response (MSNs from the NAcb shell [2]; 100 μM, during plateau DA response): significantly reduced spike firing to pre-DA levels

Compound: CN1CCc2cc(Cl)c(O)cc2[C@@H](c2ccccc2)C1 [SCH 23990]
- change in spike firing with DA after pre-exposure to antagonist (MSNs from the NAcb shell [2]; antagonist 1 μM, pre-exposure): −0.5+/−4.6%

Compound: Oc1cc2c(c(Cl)c1O)CCNCC2c1ccccc1 (stereo not shown) [SKF 81297]
- effect on spike firing in cells perfused with Gβγ (MSNs from the NAcb shell [2]; 10 μM, intracellular Gβγ subunits 20 nM): significantly enhanced spike firing
- effect on spike firing, agonist alone (MSNs from the NAcb shell [2]; 1-10 μM, alone): not altered
- change in spike firing in neurons perfused with Gβγ vehicle plus maltose binding protein (MSNs from the NAcb shell [2]; control perfusion without Gβγ): −2.5+/−2.5%

Compound: CC(N)Cc1ccccc1 (stereo not shown) [amphetamine]
- change in spike firing (MSNs from the NAcb shell [2]; 10 μM, bath application): 18.5+/−5.4%

Compound: C=C[C@@]1(C)CC(=O)[C@@H]2[C@@]3(C)CCCC(C)(C)[C@@H]3[C@H](O)[C@H](OC(C)=O)[C@@]2(C)O1 [dideoxy-forskolin]
- effect on spike firing (MSNs from the NAcb shell [2]; 5 μM): had no effect

Compound: CCc1cc(Cl)c(OC)c(C(=O)NC[C@@H]2CCCN2CC)c1O [eticlopride]
- change in spike firing with DA after pre-exposure to antagonist (MSNs from the NAcb shell [2]; antagonist 300 nM, pre-exposure): 2.5+/−5.5%
- effect on DA-mediated enhancement of spike firing (MSNs from the NAcb shell [2]; antagonist 3 μM, pre-exposure): prevented

Compound: N[C@@H](CCC(=O)O)C(=O)O [glutamate]
- effect on spike rate after exposure to 60 μM 4-AP (MSNs from the NAcb shell [2]; 200 μM, after 60 μM 4-AP): further increased spike rate

Compound: C=C1[C@@H](O)[C@@H]2O[C@]3(CC[C@H](/C=C/[C@@H](C)[C@@H]4CC(C)=C[C@@]5(O[C@H](C[C@@](C)(O)C(=O)O)CC[C@H]5O)O4)O3)CC[C@H]2O[C@@H]1[C@@H](O)C[C@H](C)[C@H]1O[C@@]2(CCCCO2)CC[C@H]1C [okadaic acid]
- effect on DA-mediated changes in spike firing (MSNs from the NAcb shell [2]): occluded
- effect on spike firing, intracellular perfusion alone (MSNs from the NAcb shell [2]): significantly enhanced
- firing change with okadaic acid in the presence of 4-AP (MSNs from the NAcb shell [2]; ˜13 minutes pre-exposure to 60 μM 4-AP): 16+/−4.3%

Compound: CCCN1CCC[C@@H]2Cc3n[nH]cc3C[C@H]21 [quinpirole]
- effect on spike firing in cells perfused with Gβγ (MSNs from the NAcb shell [2]): not
- effect on spike firing, agonist alone (MSNs from the NAcb shell [2]): not altered
- effect on spike rate, agonist alone (MSNs from the NAcb shell [2]): no effect

Compound: DALRIQMEERFMASNPSKVSYEPIT [SPβγ]
- effect on increase in spike firing elicited by D1/D2 co-activation (MSNs from the NAcb shell [2]; 200 μM): prevented
- effect on activation of spike firing by forskolin (MSNs from the NAcb shell [2]): not prevented

Compound: Norokadaone
- effect on DA-mediated changes in spike firing (MSNs from the NAcb shell [2]): did not prevent the effects of DA
- effect on spike firing, intracellular perfusion alone (MSNs from the NAcb shell [2]): had no effect by itself

Compound: YEDSYEDISAYLLSKNNAIPR [FVIII]
- effect on increase in spike firing elicited by D1/D2 co-activation (MSNs from the NAcb shell [2]; 200 μM): had no effect
- effect on activation of spike firing by forskolin (MSNs from the NAcb shell [2]): not prevented

Compound: α-dendrotoxin (QPRRKLCILHRNPGRCYDKIPAFYYNQKKKQCERFDWSGCGGNSNRFKTIEECRRTCIG; UniProt P00980 1-59, looked up) [α-dtx]
- effect on spike firing (MSNs from the NAcb shell [2]; 0.5 μM): significantly enhanced spike firing
- effect on DA-mediated enhancement of spike firing (occlusion) (MSNs from the NAcb shell [2]; 0.5 μM pre-exposure): significantly occluded the effects of DA
